A short description of series [1]: Stability as foam additive in polyol/amine catalyst/cyclopentane mixture (fluoride ion release). The class given is physicochemical. As to conditions: for change of fluoride levels over time (reaction with polyol/amine catalyst mixture): over 48 hours at room temperature; for [F—] at 48 hours / [F—] at time 0: polyol/amine catalyst/foam additive/cyclopentane mixture; for [F—] at 48 hours: aged at room temperature; for [F—] at time 0: room temperature. The procedure:
The stability of Example 3 (perfluorodiethylsulfone) was measured in a standard polyol/amine catalyst/foam blowing agent mixture commonly used in making polyurethane foams. The stability was compared to CE9 (PF-5060) and CE10 (FA-188), both of which are available from 3M Company, St. Paul, Minn., US. Stability was determined by measuring the increase in fluoride ion levels over time after mixing all the components at room temperature. An increase in fluoride ion levels is a measure of the extent to which the fluorinated foam additive is reacting with the polyol/amine catalyst mixture to release fluoride ion. Fluoride ion measurements were made using a ThermoScientific ORION DUAL STAR pH/ISE channel meter and VWR 14002-788 F Fluoride specific electrode. The electrode was calibrated using fluoride standards of 1, 2, 10, and 100 ppm fluoride ion concentration in aqueous TISAB II (Total Ionic Strength Adjustment Buffer) buffer solution.
The Polyol/Amine Catalyst/Blowing Agent/Foam Additive sample mixtures were prepared by mixing ELASTAPOR P 17655R Resin (a polyol/amine catalyst blend obtained from BASF, Ludwigshafen, Germany), cyclopentane (a common foam blowing agent), and Example 3, CE9, or CE10 as a foam additive. Using a SARTORIUS A200S balance, the cyclopentane/foam additive mixtures were made first by mixing 25.5 grams of cyclopentane with 2.3 grams of foam additive. Then 43.1 grams of the ELASTAPOR polyol containing the amine catalyst was transferred to a wide mouth 4 oz glass jar and 7 g of the cyclopentane/foam additive mixture was added and shaken.
After the sample mixtures were thoroughly shaken and mixed, an aliquot was removed and an initial fluoride concentration was determined at time 0 hr. Analytical samples were prepared by diluting 1 g of the sample mixture with 1 g of isopropyl alcohol and 0.5 mL of 1N sulfuric acid in a polypropylene centrifuge tube and mixing thoroughly. The sample was further diluted with 1 g of water and mixed again. From this mixture a 1 mL aliquot was taken and mixed with 1 mL of TISAB II solution in a fresh polypropylene centrifuge tube and mixed thoroughly prior to fluoride ion measurement. An average of 3 independent fluoride measurements were used to determine the fluoride concentration of each sample using the fluoride specific electrode and meter described above. Similar measurements were taken every 24 hours. The results are summarized in Table 8 below after 0 and 48 hours.

Series [2] deals with male Sprague Dawley rats. Nature of the series: Inhalation toxicity in rats, single 4-hour whole body exposure. The class given is in vivo, rat. The method, then: The inhalation toxicity potential of Example 3 was evaluated in male Sprague Dawley rats after a single 4-hour whole body exposure at atmospheric concentrations of 10,000 ppm (v/v). The test material (purity 98.84%) was administered as received at an appropriate volume to a 40-L test chamber containing 3 rats. The test material vaporized upon addition to the chamber. The air within the chamber was regenerated at appropriate intervals to maintain an 18% oxygen concentration. Three control animals were placed in another chamber filled with ambient air. The day of exposure was designated Day 0. Clinical observations were recorded during the exposure period and for 14 days after exposure. Body weights were recorded prior to exposure (Day 0), on Day 1, Day 2, and 14 days after exposure for both the test material-treated and control animals.

A short description of series [3]: Thermal stability: fluoride ion after aging neat in Monel pressure vessel. The class given is physicochemical. The method, then:
The thermal stability of Example 3 and CE1 was determined by placing duplicate 10-gram samples in clean, 40 mL Monel pressure vessels and sealing tightly. The pressure vessels were then placed in a convection oven set at 100° C. for 24 hours. After aging, each sample was mixed with a known weight of ultrapure (18.2 MΩ) water, agitated in a mechanical shaker at high speed for 15 minutes and finally centrifuged to separate the two phases. Fluoride ion concentrations were subsequently measured in the water phase as previously described. This was then followed by another experiment at 150° C. using the same method.

Series [4] can be described thus: Hydrolytic stability: free fluoride in water phase after aging with deionized water. The class given is physicochemical. The procedure:
Duplicate samples of Example 3 and CE1 were tested for hydrolytic stability at 150° C. by placing 10 grams of test material along with 10 grams deionized water in a clean, 40 mL Monel pressure vessel, which was sealed and placed in a convection oven set at 150° C. for 24 hours. After aging, the fluoride concentrations were determined by mixing 1 mL of the water phase from each sample with 1 mL of TISAB II (Total Ionic Strength Buffer) buffer solution. Fluoride ion concentrations were then measured using an ORION EA 940 meter with an ORION 9609BNWB Fluoride-Ion Specific Electrode (ISE) (Thermo Fisher Scientific, Minneapolis, Minn., US). ORION IONPLUS Fluoride standards (1, 2, 10 and 100 ppm Fluoride) were used for the calibration of the meter.
The hydrolytic stability values of Example 3 and CE1 are reported as average parts per million by weight (ppmw) of free fluoride in water in Table 4. Higher levels of free fluoride ion concentration correspond to reduced stability.

For the compound `FC(F)(F)C(F)(F)C(F)(F)C(F)(F)C(F)(F)C(F)(F)F` [CE9], in series [1], the “change of fluoride levels over time (reaction with polyol/amine catalyst mixture)” value is on record as “essentially unchanged”, the “[F—] at 48 hours” value worked out at 0.71 ppm and the “[F—] at time 0” value was 0.83 ppm.
As for `O=S(=O)(C(F)(F)C(F)(F)F)C(F)(F)C(F)(F)F` [Example 3, Perfluorodiethylsulfone], in series [1], the “change of fluoride levels over time (reaction with polyol/amine catalyst mixture)” value is recorded as “essentially unchanged”, the “[F—] at 48 hours” value is reported as 10.67 ppm and the “[F—] at time 0” value is reported as 11.74 ppm. Further, the “mortality and clinical observations” value in series [2] (10,000 ppm (v/v), during 4-hour exposure and throughout 14-day study) is given as “no mortality or abnormal clinical observations”. In addition, the “body weight, condition and gross necropsy” value in series [2] (10,000 ppm (v/v), single 4-hour exposure, 14-day study) is “gained weight and were normal”. For the same compound, the “approximate inhalation 4-hour LC50” value in series [2] (male Sprague Dawley rats, single 4-hour whole body exposure at 10,000 ppm (v/v), 14 days observation) is listed as “greater than 10,000 ppm”. Moreover, in series [3] (neat, no water, Monel vessel), the “Average F concentration after 24 hours at 100° C.” value was under 0.05 ppmw and the “Average F concentration after 24 hours at 150° C.” value is recorded as 0.36 ppmw. In series [3] (thermal stability test, before aging), the “Average F concentration at room temperature” value is under 0.05 ppmw. Further, the “Average F concentration after 24 hours at 150° C. with DI H2O” value in series [4] (10 g sample + 10 g deionized water, Monel vessel, 150° C., 24 hours) is listed as 11.55 ppmw. Also, the “Average F concentration at room temperature” value in series [4] (hydrolytic stability test, before aging) is on record as under 0.05 ppmw.

The values are drawn from US20210246886A1, “Fluorosulfones” (3M INNOVATIVE PROPERTIES COMPANY, priority 2018, published 2021).
